Laboratory results published in patent US4835159A, “Ergoline esters useful as serotonin antagonists” (Eli Lilly and Company, priority 1988, dated 1989).
Counter-ions that a name gives are not always drawn. Like-named read-outs stand apart in the source and are kept apart here.

Target: T1, 5HT2 receptors (Rattus norvegicus, UniProt P14842)
T1 construct: external jugular veins and thoracic aortas were dissected free of connective tissue; from tissue; host or cells: isolated external jugular vein of male Wistar rats
T1 sequence (P14842 whole entry): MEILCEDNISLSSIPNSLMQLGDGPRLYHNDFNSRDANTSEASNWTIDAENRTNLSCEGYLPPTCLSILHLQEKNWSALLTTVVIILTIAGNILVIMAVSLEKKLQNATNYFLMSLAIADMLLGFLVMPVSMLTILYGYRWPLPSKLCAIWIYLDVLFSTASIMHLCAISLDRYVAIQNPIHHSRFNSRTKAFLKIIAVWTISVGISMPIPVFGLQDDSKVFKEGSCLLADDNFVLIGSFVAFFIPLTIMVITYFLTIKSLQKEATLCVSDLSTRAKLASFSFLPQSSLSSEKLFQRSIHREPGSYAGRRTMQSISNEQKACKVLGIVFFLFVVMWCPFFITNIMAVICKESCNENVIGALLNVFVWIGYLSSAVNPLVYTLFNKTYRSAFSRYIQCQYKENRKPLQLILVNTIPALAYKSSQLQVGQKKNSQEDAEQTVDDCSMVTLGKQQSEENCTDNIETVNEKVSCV
Assay: Apparent antagonist dissociation constant (KB) for 5HT2 receptors: serotonin-induced contraction of isolated jugular vein
Design: species or system rat (male Wistar)
From the text: Male Wistar rats, each weighing from approximately 150 g to about 300 g, were sacrificed and their external jugular veins and thoracic aortas were dissected free of connective tissue, cannulated in situ and placed in a modified Krebs' bicarbonate buffer in a suitable tissue bath. Two L-shaped 30-gauge stainlesssteel hypodermic needles were inserted into each cannula and the dissected vessels gently pushed onto the needles. One needle was attached with thread to a stationary glass rod and the other to the transducer. The modified Krebs' bicarbonate buffer was composed of the following ingredients in millimoles: sodium chloride, 118.2; potassium chloride, 4.6; calcium chloride dihydrate, 1.6; potassium dihydrogenphosphate, 1.2; magnesium sulfate, 1.2; dextrose, 10.0; sodium bicarbonate, 24.8; and water q.s. to 1000 g. The tissue baths were maintained at 37° C. and were aerated with 95% oxygen-5% carbon dioxide. An initial optimum resting force of 1 g and 4 g was applied to the jugular vein and aorta, respectively. Isometric contractions were recorded as changes in grams of force on a Beckman Dynograph with Statham UC-3 transducers and a microscale accessory attachment. Tissues were allowed to equilibrate 1 to 2 hours before exposure to the test compounds. Control responses to serotonin in the jugular vein and to norepinephrine in the aorta were obtained. The vessels were then incubated with appropriate concentrations of the test compound for one hour. Responses to serotonin or to norepinephrine were then repeated in the presence of the antagonist. Contraction to serotonin was evaluated in the jugular vein since this tissue is known to produce marked responses to serotonin in the absence of alpha receptors. See Cohen and Wiley, J. Pharm. Exp. Ther., 205, 400 (1978). Alpha receptor antagonist activity was evaluated in the aorta.
Apparent antagonist dissociation constants were determined for each concentration of antagonist according to the following equation: […]

**Q.** With `CC(C)n1cc2c3c(cccc31)[C@H]1C[C@@H](C(=O)OC3CCCC4C(O)CCCC34)CN(C)[C@@H]1C2` (stereo partly drawn) [Example 1, Decahydro-t-hydroxy-1-naphthalenyl 1-isopropyl-9,10-dihydrolysergate maleate] as the compound, how does the Kb (rat jugular vein, contraction to serotonin, 1 hour incubation with test compound, 37° C., average of the number of trials, read-out: log KB ± standard error (-log KB, serotonin receptor activity) (converted)) read?
**A.** 0.224 nM

**Q.** With `CC(C)n1cc2c3c(cccc31)[C@H]1C[C@@H](C(=O)OC3CCC4CCCCC4C3)CN(C)[C@@H]1C2` (stereo partly drawn) [Example 2, Decahydro-2-naphthalenyl 1-isopropyl-9,10-dihydrolysergate maleate] as the compound, how does the Kb read?
**A.** < 100 nM

**Q.** Which Kb does the source give for `CC(C)n1cc2c3c(cccc31)[C@H]1C[C@@H](C(=O)OC3CC4CC(O)CC4C3)CN(C)[C@@H]1C2` (stereo partly drawn) [Example 3, Octahydro-5-hydroxy-2-pentalenyl 1-isopropyl-9,10-dihydrolysergate hemihydrate] here?
**A.** 0.631 nM
